Test results as given in the supplement of paper PMC11451515.

Experiments:
Details in all cases: 48 h
SEM cells [1] = assay: cell viability relative to DMSO control; higher = less cytotoxic
Method in brief: (§1)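 Viability, reported as a per-plate percentage of DMSO wells with cell-free wells as background, came from CellTiter-Glo One luminescence. Reading took place after 48 h at 37°C. Before that, NOMO1 or SEM (500 cells/well) or P12-Ichikawa (1000 cells/well) leukemia cells, adapted for at least four passages in each medium, were seeded in 1536-well plates (5 μl) and pin-dosed with library compounds in DMSO, 47 μM to 0.79 nM over 11 threefold points.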

P12-Ichikawa [2] = assay: as above
Method in brief: as §1

NOMO1 [3] = assay: as above
Method in brief: as §1

SEM cells [4] = assay: AUC of viability dose-response curve (% viability x log10 dose units); higher = less sensitive
Method in brief: (§2)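 Over 48 h at 37°C, leukemia cells in 1536-well plates (500 or 1000 cells/well), adapted to each medium, received library compounds in DMSO at 11 threefold doses from 47 μM to 0.79 nM. CellTiter-Glo One luminescence, normalised per plate to DMSO and cell-free wells, was fitted by a four-parameter log-logistic function of log10 dose. The area under the curve was then integrated by trapezoidal rule, after scaling curves above full viability and removing those that failed quality control.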

P12-Ichikawa [5] = assay: as above
Method in brief: as §2

NOMO1 [6] = assay: as above
Method in brief: as §2

OC[C@@H](O)[C@@H](O)[C@H](O)[C@@H](O)CO
cell viability [%]
Details	NOMO1 [3]	P12-Ichikawa [2]	SEM cells [1]
HPLM + 10% dialyzed FBS, 0.000781 µM	96.4	106	68.4
HPLM + 10% dialyzed FBS, 0.00234 µM	116	110	85.4
HPLM + 10% dialyzed FBS, 0.00702 µM	129	107	88.2
HPLM + 10% dialyzed FBS, 0.0211 µM	133	108	105
HPLM + 10% dialyzed FBS, 0.0632 µM	131	127	98.4
HPLM + 10% dialyzed FBS, 0.19 µM	131	127	101
HPLM + 10% dialyzed FBS, 0.569 µM	130	112	13.8
HPLM + 10% dialyzed FBS, 1.71 µM	132	112	60
HPLM + 10% dialyzed FBS, 5.12 µM	129	124	103
HPLM + 10% dialyzed FBS, 15.4 µM	123	114	97
HPLM + 10% dialyzed FBS, 46.1 µM	135	122	105
RPMI 5 mM glucose + 10% FBS, 0.000781 µM	106	116	102
RPMI 5 mM glucose + 10% FBS, 0.00234 µM	114	115	105
RPMI 5 mM glucose + 10% FBS, 0.00702 µM	108	122	103
RPMI 5 mM glucose + 10% FBS, 0.0211 µM	111	123	99.5
RPMI 5 mM glucose + 10% FBS, 0.0632 µM	130	136	113
RPMI 5 mM glucose + 10% FBS, 0.19 µM	109	126	111
RPMI 5 mM glucose + 10% FBS, 0.569 µM	107	132	11.4
RPMI 5 mM glucose + 10% FBS, 1.71 µM	110	141	110
RPMI 5 mM glucose + 10% FBS, 5.12 µM	114	130	112
RPMI 5 mM glucose + 10% FBS, 15.4 µM	112	135	116
RPMI 5 mM glucose + 10% FBS, 46.1 µM	114	139	108
RPMI 5 mM glucose + 10% dialyzed FBS, 0.000781 µM	102	109	104
RPMI 5 mM glucose + 10% dialyzed FBS, 0.00234 µM	112	109	97.4
RPMI 5 mM glucose + 10% dialyzed FBS, 0.00702 µM	99.5	120	119
RPMI 5 mM glucose + 10% dialyzed FBS, 0.0211 µM	111	109	97.3
RPMI 5 mM glucose + 10% dialyzed FBS, 0.0632 µM	113	123	108
RPMI 5 mM glucose + 10% dialyzed FBS, 0.19 µM	137	123	124
RPMI 5 mM glucose + 10% dialyzed FBS, 0.569 µM	122	117	12.5
RPMI 5 mM glucose + 10% dialyzed FBS, 1.71 µM	108	120	118
RPMI 5 mM glucose + 10% dialyzed FBS, 5.12 µM	135	126	133
RPMI 5 mM glucose + 10% dialyzed FBS, 15.4 µM	127	118	120
RPMI 5 mM glucose + 10% dialyzed FBS, 46.1 µM	131	127	113

AUC of viability dose-response curve
Details	NOMO1 [6]	P12-Ichikawa [5]	SEM cells [4]
HPLM + 10% dialyzed FBS	465	452	401
RPMI 5 mM glucose + 10% FBS	472	453	472
RPMI 5 mM glucose + 10% dialyzed FBS	445	449	452

O=c1[nH]c2ccccc2n1CCCN1CCC(n2c(=O)[nH]c3cc(Cl)ccc32)CC1
NOMO1 [3], RPMI 5 mM glucose + 10% FBS
Details	cell viability [%]
0.000781 µM	124
0.00234 µM	146
0.00702 µM	123
0.0211 µM	134
0.0632 µM	151
0.19 µM	149
0.569 µM	137
1.71 µM	116
5.12 µM	131
15.4 µM	146
46.1 µM	122

AUC of viability dose-response curve
Details	NOMO1 [6]	P12-Ichikawa [5]	SEM cells [4]
HPLM + 10% dialyzed FBS	459	467	448
RPMI 5 mM glucose + 10% FBS	466	460	473
RPMI 5 mM glucose + 10% dialyzed FBS	472	470	475

CCn1cc(-c2ccnc3[nH]c(-c4cccc(CN(C)C)c4)cc23)c(-c2ccc(NC(=O)N(C)C)cc2)n1
SEM cells [1], HPLM + 10% dialyzed FBS
Details	cell viability [%]
0.000781 µM	123
0.00234 µM	112
0.00702 µM	135
0.0211 µM	138
0.0632 µM	79.6
0.19 µM	52.5
0.569 µM	44.8
1.71 µM	48.9
5.12 µM	41.6
15.4 µM	19.4
46.1 µM	9.33

AUC of viability dose-response curve
Details	NOMO1 [6]	P12-Ichikawa [5]	SEM cells [4]
HPLM + 10% dialyzed FBS	375	220	271
RPMI 5 mM glucose + 10% FBS	318	234	224
RPMI 5 mM glucose + 10% dialyzed FBS	323	252	233

CCCc1cc(C(N)=S)ccn1
SEM cells [1], HPLM + 10% dialyzed FBS
Details	cell viability [%]
0.000781 µM	92.5
0.00234 µM	110
0.00702 µM	111
0.0211 µM	113
0.0632 µM	114
0.19 µM	117
0.569 µM	85.6
1.71 µM	56.3
5.12 µM	119
15.4 µM	130
46.1 µM	133

AUC of viability dose-response curve
Details	NOMO1 [6]	P12-Ichikawa [5]	SEM cells [4]
HPLM + 10% dialyzed FBS	470	466	446
RPMI 5 mM glucose + 10% FBS	472	436	469
RPMI 5 mM glucose + 10% dialyzed FBS	465	472	475

CCN(CC)CCOc1ccc(/C(=C(\Cl)c2ccccc2)c2ccccc2)cc1
cell viability [%]
Details	HPLM + 10% dialyzed FBS	RPMI 5 mM glucose + 10% FBS	RPMI 5 mM glucose + 10% dialyzed FBS
NOMO1 [3], 0.000781 µM	124	–	–
NOMO1 [3], 0.00234 µM	123	–	–
NOMO1 [3], 0.00702 µM	130	–	–
NOMO1 [3], 0.0211 µM	136	–	–
NOMO1 [3], 0.0632 µM	150	–	–
NOMO1 [3], 0.19 µM	134	–	–
NOMO1 [3], 0.569 µM	130	–	–
NOMO1 [3], 1.71 µM	134	–	–
NOMO1 [3], 5.12 µM	109	–	–
NOMO1 [3], 15.4 µM	122	–	–
NOMO1 [3], 46.1 µM	102	–	–
SEM cells [1], 0.000781 µM	111	90	104
SEM cells [1], 0.00234 µM	118	94.7	124
SEM cells [1], 0.00702 µM	128	115	125
SEM cells [1], 0.0211 µM	114	116	127
SEM cells [1], 0.0632 µM	118	118	142
SEM cells [1], 0.19 µM	116	128	144
SEM cells [1], 0.569 µM	134	124	127
SEM cells [1], 1.71 µM	125	116	126
SEM cells [1], 5.12 µM	129	108	123
SEM cells [1], 15.4 µM	112	116	126
SEM cells [1], 46.1 µM	101	91.6	118

AUC of viability dose-response curve
Details	NOMO1 [6]	P12-Ichikawa [5]	SEM cells [4]
HPLM + 10% dialyzed FBS	458	466	470
RPMI 5 mM glucose + 10% FBS	471	469	462
RPMI 5 mM glucose + 10% dialyzed FBS	473	456	470

O=C(c1ccc(OCCN2CCCCC2)cc1)c1c(-c2ccc(O)cc2)sc2cc(O)ccc12
Details	cell viability [%]
NOMO1 [3], HPLM + 10% dialyzed FBS, 0.000781 µM	121
NOMO1 [3], HPLM + 10% dialyzed FBS, 0.00234 µM	119
NOMO1 [3], HPLM + 10% dialyzed FBS, 0.00702 µM	134
NOMO1 [3], HPLM + 10% dialyzed FBS, 0.0211 µM	135
NOMO1 [3], HPLM + 10% dialyzed FBS, 0.0632 µM	150
NOMO1 [3], HPLM + 10% dialyzed FBS, 0.19 µM	145
NOMO1 [3], HPLM + 10% dialyzed FBS, 0.569 µM	143
NOMO1 [3], HPLM + 10% dialyzed FBS, 1.71 µM	133
NOMO1 [3], HPLM + 10% dialyzed FBS, 5.12 µM	123
NOMO1 [3], HPLM + 10% dialyzed FBS, 15.4 µM	126
NOMO1 [3], HPLM + 10% dialyzed FBS, 46.1 µM	89.9
SEM cells [1], RPMI 5 mM glucose + 10% FBS, 0.000781 µM	108
SEM cells [1], RPMI 5 mM glucose + 10% FBS, 0.00234 µM	122
SEM cells [1], RPMI 5 mM glucose + 10% FBS, 0.00702 µM	122
SEM cells [1], RPMI 5 mM glucose + 10% FBS, 0.0211 µM	133
SEM cells [1], RPMI 5 mM glucose + 10% FBS, 0.0632 µM	113
SEM cells [1], RPMI 5 mM glucose + 10% FBS, 0.19 µM	42
SEM cells [1], RPMI 5 mM glucose + 10% FBS, 0.569 µM	133
SEM cells [1], RPMI 5 mM glucose + 10% FBS, 1.71 µM	94.1
SEM cells [1], RPMI 5 mM glucose + 10% FBS, 5.12 µM	85.3
SEM cells [1], RPMI 5 mM glucose + 10% FBS, 15.4 µM	117
SEM cells [1], RPMI 5 mM glucose + 10% FBS, 46.1 µM	68.9

AUC of viability dose-response curve
Details	NOMO1 [6]	P12-Ichikawa [5]	SEM cells [4]
HPLM + 10% dialyzed FBS	466	442	413
RPMI 5 mM glucose + 10% FBS	475	442	415
RPMI 5 mM glucose + 10% dialyzed FBS	462	413	384
